Test results published in patent publication US20240409944A1, “COMPOSITIONS AND METHODS FOR THE INHIBITION OF TUMOR METASTASIS AND HORIZONTAL GENE TRANSFER” (The Regents of the University of Colorado, a body corporate, priority 2021, published 2024).
“Also recorded” adds a separate entry of the source. Read-outs that look alike come from different tables or passages of the source. *1 amine or outer side, *2 acyl side, *3 side chain or, on linkers, in order; H or OH if unused. Where a SMILES comes first, the peptide text is derived from it. Bridges are numbered along the chain shown (N, C = ends). Roman numbers before positions name the chains, in order. [ ]: non-standard residue; d: D form. Actinocin(9to1) = Cc1c2oc3c(C)ccc(C(=O)[*:1])c3nc-2c(C(=O)[*:2])c(N)c1=O; NMeV = CN[C@H](C(=O)O)C(C)C; Sar = CNCC(=O)O

Tests used:
[1] = system: RPE1-Venus-Parkin and MDA-MB-231-H2B-mCherry co-culture; assay: Intercellular gene transfer in co-culture, flow cytometric analysis; format: cell-based
[2] = system: MDA-MB-231-H2B-mCherry and RPE1-Venus-Parkin co-culture; assay: Cell entrapment (cell-in-cell structure formation), live-cell imaging; details: inhibitor treatment
[3] = system: MDASC43 & RPE1-VEP co-culture; assay: 48-hour live cell imaging of CIC structures, MDASC43 co-culture; format: cell-based; details: 10 μM Doxorubicin, 100 μM Hygromycin B; for effect on number/frequency of CIC structures / average duration of CIC structures / time at which CIC structures were concentrated: 20 μM Actinomycin D; for average duration of CIC structures / time at which CIC structures were concentrated: alone or combined
[4] = system: HUVEC and MDA-MB-231-H2B-mCherry co-culture; assay: Live cell imaging of CIC structures, HUVEC co-culture; format: cell-based, Human; details: preliminary
F-actin = F-actin stability (Alexa Fluor 594 Phalloidin); format: cell-based; details: co-cultured RPE1-VEP and MDA-MB-231-H2BmCherry
Method: Immunofluorescence microscopy was performed as described previously.

[5] = compound present in the co-culture, Hygromycin B 100 μM

Compound | effect on gene transfer [1, 5] | effect on number/frequency of CIC structures [3] | average duration of CIC structures [3] [h] | time at which CIC structures were concentrated [3] [h] | further results
C[C@@H](N)[C@H]1CC[C@H](C(=O)Nc2ccncc2)CC1 [Y27632] | effect of ROCKs perturbation by RNA depletion was phenocopied | – | – | – | effect on cell entrapment (cell-in-cell structure formation) [2]: effect of ROCKs perturbation by RNA depletion was phenocopied
Cc1cn([C@H]2C=C[C@@H](CO)O2)c(=O)[nH]c1=O [Stavudine] | – | – | – | – | IC50 ([1]; later used as positive control of the screen, read-out: IC50 as potential tangocytosis inhibitor): 1830 nM
COc1ccc(C2CC(c3ccccc3)=NN2c2ccc(S(N)(=O)=O)cc2)cc1 (centres unmarked) [ML141] | decreased; also recorded: significant effect | – | – | – | –
COc1cccc2c1C(=O)c1c(O)c3c(c(O)c1C2=O)C[C@@](O)(C(=O)CO)C[C@@H]3O[C@H]1C[C@H](N)[C@H](O)[C@H](C)O1 [Doxorubicin] | inhibiting | most CIC structure formation; also recorded: significantly increased | 11.5 | 13.6 to 25.1 | effect on CIC structure duration [3]: significantly higher; also recorded: significantly increased
Cc1c2oc3c(C)ccc(C(=O)N[C@@H]4C(=O)N[C@H](C(C)C)C(=O)N5CCC[C@H]5C(=O)N(C)CC(=O)N(C)[C@@H](C(C)C)C(=O)O[C@@H]4C)c3nc-2c(C(=O)N[C@@H]2C(=O)N[C@H](C(C)C)C(=O)N3CCC[C@H]3C(=O)N(C)CC(=O)N(C)[C@@H](C(C)C)C(=O)O[C@@H]2C)c(N)c1=O [Actinomycin D] (I: T[dV]P[Sar][NMeV] / II: T[dV]P[Sar][NMeV]; ester I:1-I:C, II:1-II:C; linker I:N-II:N via Actinocin(9to1)) | – | significantly increased | 6.04 | 9.2 to 15.3 | effect on gene transfer [1]: prevents; gene transfer percentage [1]: 1.5%; average CIC structure duration ([4]; 100 μM Hygromycin B, 20 μM Actinomycin D, or combination, 1 focus field): 2.1 h; time at which CIC structures were concentrated ([4]; 100 μM Hygromycin B, 20 μM Actinomycin D, or combination): 2.9 to 5.1 h; effect on CIC structures (induction, frequency) [4]: induced
C/C1=C/C(=O)O[C@@H]2C[C@@H](CC[C@H](C)/C=C\CC1)O[C@@](O)([C@@H]1CSC(=O)N1)C2 [Latrunculin B] | significantly decreased | – | – | – | concentration that resulted in the lowest percentage of gene transfer to RPE cells [1]: 3 µM; F-actin levels (F-actin): significantly decreased
